Each block holds one compound with its values, some of them ahead of it.
Tests used:
[1] = biological target: T1, Estrogen receptor (Homo sapiens) (UniProt P03372); test: Potency index, ratio of tamoxifen IC50 to compound IC50 for binding affinity to ERalpha receptor (unknown origin)
T1 sequence (whole entry): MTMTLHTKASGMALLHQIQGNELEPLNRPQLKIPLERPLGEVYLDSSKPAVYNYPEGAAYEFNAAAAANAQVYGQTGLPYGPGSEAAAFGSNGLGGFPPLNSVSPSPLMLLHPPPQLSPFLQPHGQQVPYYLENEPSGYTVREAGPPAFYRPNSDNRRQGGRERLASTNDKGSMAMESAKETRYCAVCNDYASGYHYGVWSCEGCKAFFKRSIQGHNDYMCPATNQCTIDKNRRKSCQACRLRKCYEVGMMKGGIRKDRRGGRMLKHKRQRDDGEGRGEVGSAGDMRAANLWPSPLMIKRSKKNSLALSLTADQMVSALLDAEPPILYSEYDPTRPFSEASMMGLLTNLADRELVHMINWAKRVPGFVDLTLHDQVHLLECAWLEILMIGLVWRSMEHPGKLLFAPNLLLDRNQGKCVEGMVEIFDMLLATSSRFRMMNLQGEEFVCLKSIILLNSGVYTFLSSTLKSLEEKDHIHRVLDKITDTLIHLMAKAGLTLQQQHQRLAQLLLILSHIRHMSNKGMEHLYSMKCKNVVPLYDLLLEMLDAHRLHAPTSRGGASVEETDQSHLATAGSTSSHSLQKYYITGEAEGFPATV

Homo sapiens [2] = organism: Homo sapiens; test: Selectivity index, ratio of IC50 for of ERalpha receptor (unknown origin) to IC50 for ERbeta receptor (unknown origin)
Estrogen receptor [3] = biological target: T2, Estrogen receptor (Homo sapiens, UniProt P03372); test: Binding affinity to estrogen receptor (unknown origin)
T2 sequence (P03372 whole entry): T1 sequence (whole entry)

MCF7 [4] = test: Antiproliferative activity against human MCF7 cells; assay type: functional, cell-based
Homo sapiens [5] = organism: Homo sapiens; test: Ratio of selectivity index for test compound to selectivity index for compound for ERalpha (unknown origin) over ERbeta (unknown origin)
Estrogen receptor [6] = biological target: T2, Estrogen receptor; test: Inhibition of estrogen receptor (unknown origin)
MCF7 [7] = test: Cytostatic activity against human MCF7 cells; assay type: functional, cell-based
[8] = biological target: T3, Prostaglandin G/H synthase 2 (Ovis aries, UniProt P79208); test: Inhibition of ovine COX2 using arachidonic acid as substrate assessed as reduction in PGF2alpha production preincubated for 5 mins followed by substrate addition measured after 2 mins by enzyme immunoassay
T3 sequence (P79208 whole entry): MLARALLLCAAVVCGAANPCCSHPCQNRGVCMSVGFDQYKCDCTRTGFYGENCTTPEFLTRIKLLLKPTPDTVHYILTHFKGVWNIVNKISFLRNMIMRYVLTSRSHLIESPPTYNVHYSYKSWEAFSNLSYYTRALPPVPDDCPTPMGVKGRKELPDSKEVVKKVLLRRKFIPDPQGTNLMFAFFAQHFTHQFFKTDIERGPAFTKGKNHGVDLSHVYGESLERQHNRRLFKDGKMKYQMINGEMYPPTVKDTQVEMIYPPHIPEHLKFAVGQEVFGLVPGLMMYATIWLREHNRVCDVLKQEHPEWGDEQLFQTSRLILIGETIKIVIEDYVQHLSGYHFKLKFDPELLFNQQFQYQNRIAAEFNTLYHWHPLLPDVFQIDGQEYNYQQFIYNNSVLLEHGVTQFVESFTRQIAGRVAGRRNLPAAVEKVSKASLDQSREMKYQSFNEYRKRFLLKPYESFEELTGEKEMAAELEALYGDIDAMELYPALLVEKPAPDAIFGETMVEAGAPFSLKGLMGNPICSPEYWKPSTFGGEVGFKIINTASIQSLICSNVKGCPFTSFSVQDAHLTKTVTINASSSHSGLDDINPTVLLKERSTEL

Ovis aries = organism: Ovis aries; test: Selectivity index, ratio of IC50 for ovine COX1 to IC50 for ovine COX2
MCF7 [9] = test: Cytotoxicity against human MCF7 cells after 72 hrs by LDH assay; assay type: functional, cell-based; details: MCF7, 72 h

SMILES: CCc1c(-c2ccccc2)c2cnn(OCCCN(C)C)c2c2ccccc12
IC50 (MCF7 [7]): 1000 nM

SMILES: CC/C(=C(\c1ccccc1)c1cnn(OCCCN(C)C)c1)c1ccccc1
IC50 (MCF7 [7]): 3000 nM

SMILES: CCN(CC)CCOc1ccc(C(=C(C#N)c2ccccc2)c2ccc(OCCN(CC)CC)cc2)cc1
IC50 (Estrogen receptor [6]): > 10000 nM

SMILES: CCCCC(=C(c1ccccc1)c1ccccc1)c1ccc(S(C)(=O)=O)cc1
IC50 [8]: 14 nM | Ratio IC50 (Ovis aries): > 7140

SMILES: CC/C(Cc1ccccc1)=C(\c1ccccc1)c1ccc(OCCN2CCCC2)cc1
IC50 (MCF7 [9]): 12500 nM

The next lines start with the values.

Ratio IC50 [1]: 80 | Ratio IC50 (Homo sapiens [2]): 12 | IC50 (Estrogen receptor [3]): 20 nM | IC50 (MCF7 [4]): < 250 nM | Ratio IC50 (Homo sapiens [5]): 900
SMILES: CCC(Cc1ccccc1)=C(c1ccc(O)cc1)c1ccc(OCCN2CCCC2)cc1

IC50 (Estrogen receptor [6]): > 10000 nM
SMILES: CN1CCN(CCOc2ccc(C(=C(C#N)c3ccccc3)c3ccc(OCCN4CCN(C)CC4)cc3)cc2)CC1

IC50 (MCF7 [7]): 2700 nM
SMILES: CC/C(=C(\c1ccccc1)c1ccc(OCCN(C)C)cc1)c1ccccc1 [TAMOXIFEN]

Reference: ChEMBL document CHEMBL4251582 (Eur J Med Chem, 2018)
